Structures are written as SMILES.

The values below come from patent publication US7655253B2, “Navel orangeworm pheromone composition” (Bedoukian Research, Inc., priority 2004, dated 2010).

Experiment [1] relates to olfactory receptor neurons (ORN) in sensilla trichodea of male moth antennae. Kind of experiment: Single sensillum recordings (SSR) from sensilla trichodea. Also on record: species or system Amyelois transitella. An excerpt: Single sensillum recordings (SSR). Male moths were immobilized with dental wax on the recording stage of a single sensillum recording unit (Syntech, INR-02), the tip of the sensilla were cut (Kaissling, K. E. Single unit and electroantennogram recordings in insect olfactory organs, In: Spielman A. I., Brand J. G. (ed) Experimental Cell Biology of Taste and Olfaction: Current Techniques and Protocols, CRC Press, Boca Raton, pp.361-386 (1995)) and placed under a stereomicroscope (SZX12,Olympus, Tokyo, Japan). The indifferent (ground) electrode was a thin tungsten electrode inserted into the head. The recording glass electrode was slipped over the cut tip of the sensilla with a Piezo Manipulator (PM-10, World Precision Instruments, Sarasota, Fla.) while the signal was monitored with a Tektronix oscilloscope (TDS-2014). The pre-amplified signal was acquired with an acquisition system (IDAC-USB, Syntech) and SSR software (Autospike 2000, Syntech). The antennal preparation was continuously flushed with clean air at 0.5 m/s. Each stimulus was applied to a filter paper, dried at least 10 min, and placed within a glass cartridge (7 mm i.d.; 5 cm long). The cartridge opening was placed 1 cm in front of the antennae. The stimulus air was delivered by a stimulus controller (CD-02/E, Syntech).

Experiment [2] concerns male moth antennae (navel orangeworm). Kind of experiment: GC-EAD using male navel orangeworm antennae as sensing element. Also on record: species or system Amyelois transitella. The following applies: for EAD activity of natural constituent: peaks in female pheromone gland extract or its fractions; for EAD activity of synthetic or authentic compound: synthetic standard. The procedure: General. Gas chromatography-mass spectrometry (GC-MS), described in Examples 1-6, was obtained with a 5973 Network Mass Selective Detector linked to a 6890 Network GC System (Agilent Technologies, Palo Alto, Calif.) operated either in the electron impact (EI) or chemical ionization (CI) mode. Chromatographic resolution was done on an HP-5MS column (30 m×0.25 mm; 0.25 μm; Agilent) that was operated at 70° C. for 1 min, increased to 250° C. at a rate of 10° C./min and held at this temperature for 10 min. Vapor phase infrared spectroscopy was carried out on a Win GC/IR Pro (Varian Inc., formerly Digilab, Randolph, Mass.) with a GC/IR interface and a Scimitar FTS 2000 linked to a 6890 Network GC System (Agilent). Separation was done on a HP-5 column (30 m×0.32 mm; 0.25 μm; Agilent) operated at 100° C. for 1 min, increased to 250° C. at a rate of 20° C./min and held at this temperature for 5 min; the transfer line and light pipe were operated at 250° C. Gas chromatography with electroantennographic detection (GC-EAD) was done with two different systems: HP 5890 and HP 6890 (Agilent) both having Syntech's GC-EAD transfer lines and temperature control units (Hilversum, The Netherlands). In both systems, the effluent from the capillary column was split into EAD and flame ionization detector (FID) in 3:1 ratios. Male antennae were placed in EAG probes (Syntech) and held in place with Spectra 360 electrode gel (Parker Laboratories, Orange, N.J.). These probes were connected to AM-01 amplifiers (Syntech). The analog signals were fed into A/D 35900E interfaces (Agilent) and acquired simultaneously with FID signal on an Agilent Chemstation. Chromatographic separations were done either with HP-5MS column operated as in GC-MS or with HP-INNOWAX column (30 m×0.32 mm; 0.25 μm; Agilent) operated at 70° C. for 1 min, increased to 250° C. at a rate of 10° C./min and held at this temperature for 5 min.
Gas chromatography coupled with an electroantennographic detector (GC-EAD) using male moth antennae as the sensing element was used to determine the active constituents in these SSR-active fractions (3% and hexane). […] The peaks were numbered in the order of their retention times (tR) in a non-polar column (1: tR, 17.30 min; 2: 18.44 min; 3: 18.96 min; 4: 19.08 min; 5: 20.9 min; 6: 23.8 min). The retention times of these EAD-active peaks in a polar column (HP-INNOWAX) were: 16.59, 17.37, 18.32, and 18.72 min (3% fraction) and 18.52 and 20.22 min (hexane fraction).
Pheromone glands were individually dissected out of >2,000 virgin female NOW, and the glands were extracted in −250 microliters of pentane in composite batches of −250-300 glands per extract. The extracts were screened by GC-EAD analysis to locate the compounds which elicited responses from male antennae (i.e., potential pheromone compounds). The extracts were then concentrated to ˜10-20 microliters, and aliquots were analyzed on several GC columns with different polarity, by coupled GC-mass spectrometry, and by coupled GC-Fourier transform infrared spectrometry. A parallel set of studies was conducted with composite pheromone gland extracts prepared from Pyralis females. A subset of the extracts were also combined and fractionated by liquid chromatography, to provide samples for wind tunnel tests.

The test system of experiment [3] is antennae of male meal moth. Put plainly: GC-EAD using male meal moth antennae. More on the design: species or system Pyralis farinalis. As to the method:
General. Gas chromatography-mass spectrometry (GC-MS), described in Examples 1-6, was obtained with a 5973 Network Mass Selective Detector linked to a 6890 Network GC System (Agilent Technologies, Palo Alto, Calif.) operated either in the electron impact (EI) or chemical ionization (CI) mode. Chromatographic resolution was done on an HP-5MS column (30 m×0.25 mm; 0.25 μm; Agilent) that was operated at 70° C. for 1 min, increased to 250° C. at a rate of 10° C./min and held at this temperature for 10 min. Vapor phase infrared spectroscopy was carried out on a Win GC/IR Pro (Varian Inc., formerly Digilab, Randolph, Mass.) with a GC/IR interface and a Scimitar FTS 2000 linked to a 6890 Network GC System (Agilent). Separation was done on a HP-5 column (30 m×0.32 mm; 0.25 μm; Agilent) operated at 100° C. for 1 min, increased to 250° C. at a rate of 20° C./min and held at this temperature for 5 min; the transfer line and light pipe were operated at 250° C. […]
Pheromone glands were individually dissected out of >2,000 virgin female NOW, and the glands were extracted in −250 microliters of pentane in composite batches of −250-300 glands per extract. […] The extracts were then concentrated to ˜10-20 microliters, and aliquots were analyzed on several GC columns with different polarity, by coupled GC-mass spectrometry, and by coupled GC-Fourier transform infrared spectrometry. […]

A further experiment has as its system meal moth. Put plainly: Field trap tests, UC Davis, meal moth captures. It is filed as in vivo, Pyralis farinalis. The following applies: for catches of meal moth in traps baited with virgin female navel orangeworm plus added compound: synthetic sample 0.5 mg per device added. The procedure: (§1) Experimental. Tests were conducted in almond and walnut plot fields in the UC Davis campus. Pheromone samples (0.5 mg) were formulated in rubber septa or in 12 mm diameter, 3 mm thick discs (made of ES fiber, Chisso Co. Ltd, Tokyo, Japan) and loaded into Pherocon 1C traps (Trece Inc., Salinas, Calif.). Three or five 1 to 3-day old virgin females were placed in fiberglass screen cages (Curtis, C. E. and Clark, J. D., J Econ Entomol 77:1057-1061 (1984) Curtis et al., J Econ Entomol 78:1425-1430 (1985)). Baited and control traps were placed at ca. 1.8 m height in randomized blocks with the intertrap distance of ca. 10 m. Capture data were transformed to log (x+0.5) and analyzed by ANOVA. […] Means of captures are untransformed, and error bars show one standard error (SE).

The test system of the next experiment is NOW males. Kind of experiment: Wind tunnel bioassays of male NOW flight responses. The experiment is classed as in vivo, Amyelois transitella. As to the method:
Flight responses of male NOW to different blends and doses of synthesized pheromone components were tested in the ARS wind tunnel. Males were 2-3 days old and were used during the last two hours of shotophase (dark cycle). The wind tunnel room was maintained at 23-26° C. with >35% relative humidity. NOW males were placed in individual aluminum-screen cages during their 1st or 2nd photophase and then held in an incubator until one hour prior to testing, when they were transferred from their dark incubator to the wind tunnel. […] After conditioning to ambient conditions in the wind tunnel for one hour, males were assayed individually to test compounds formulated on 1cm dia. filter paper disks. Information recorded included the number of males per trial that reached the pheromone source, the time to reach the pheromone source, and observations of the flight behavior (e.g., relatively straight flight; looping flight; veering out of the pheromone plume, etc.)
Subsequent wind tunnel tests were evaluated on quantitative as well as qualitative responses of NOW males to test formulations. All treatments were applied to 1 cm filter paper disks in at least 25 ul of hexane, to fully “wet” the paper surface, and at least 5 males were tested individually to each pheromone blend.

A further experiment deals with navel orangeworm. Kind of experiment: Field trap tests, UC Davis, navel orangeworm captures. The experiment is classed as in vivo, Amyelois transitella. The following applies: 0.5 mg lure, 3-wk period. The procedure:
as §1

In experiment [4] the test system is major pheromone-binding protein (AtraPBP). Kind of experiment: Binding assays with recombinant olfactory proteins. The following applies: preliminary screening of ligands. More on the design: species or system navel orangeworm, A. transitella. An excerpt: Synthetic pheromone compositions can be conveniently tested in the assays described below. For example, the synthetic pheromone compositions of the present invention can be tested.to determine affinity for a pheromone-binding protein (AtraPBP) present in the navel orangeworm. Alternatively, the compositions can be tested for the ability to stimulate the olfactory receptor neurons (ORNs) in the insect's sensilla trichodea producing a response that indicates the presence or absence of a pheromone. In a typical embodiment, the compositions stimulate an electroantennogram response from an insect pest antenna, as described below.
Results. A comprehensive approach was taken in studying chemical communication in the navel orangeworm, A. transitella. Pheromone- and odorant-binding proteins were isolated, cloned, and expressed.

For the compound `CC/C=C/C=C/CCCCCCCCCC=O` [(E,E)-1], the “SSR response of olfactory receptor neurons” value in experiment [1] is listed as “activated mainly a small spike ORN, with small activation of a large spike cell”. For the compound `CC/C=C/C=C\CCCCCCCCCC=O` [(Z,E)-1, Z,E-11,13-hexadecadienal], the “EAD activity of natural constituent” value in experiment [2] is “small EAD-active peaks”. With `CCCCCCCCCCCCCCCC(=O)OCC` [ethyl palmitate], in experiment [2], the “EAD activity of synthetic or authentic compound” value was “EAD activity”. Consider `CC/C=C\C/C=C\C/C=C\C/C=C\C/C=C\CCCCCCC` [(Z,Z,Z,Z,Z)-3,6,9,12,15-tricosapentaene], for which, in experiment [3], the “EAD response of male meal moth antennae” value is reported as “consistently elicited responses from the male antennae”. The “share of NOW antennal preparations with detectable response” value in experiment [2] (NOW gland extract screened by GC-EAD) was “about half”. Also, the “EAD activity of natural constituent” value in experiment [2] was “much weaker response”. Consider `CC/C=C\C=C/CCCCCCCCCCOC(C)=O` (single isomer, unassigned) [Compound 4, (Z,Z)-11,13-hexadecadien-1-yl acetate], for which the “catches of meal moth in traps baited with virgin female navel orangeworm plus added compound” value in the experiment on meal moth is “completely shut off”. In experiment [2], the “EAD activity of natural constituent” value was “EAD-active”.

With `CC/C=C\C=C/CCCCCCCCCC(=O)OCC` (single isomer, unassigned) [Compound 3, ethyl (Z,Z)-11,13-hexadecadienoate], in experiment [2], the “EAD activity of natural constituent” value was “EAD-active” and the “EAD activity of synthetic or authentic compound” value was “EAD active”. Take `CC/C=C\C=C/CCCCCCCCCCO` [Z11,Z13-16:OH, Z,Z-11,13-hexadecadien-1-ol]: the “effect of adding the compound to the blend of Z11,Z13-16:Ald with tricosapentaene” value in the experiment on NOW males (wind tunnel) was “further enhanced attraction”. Consider `CC/C=C\C/C=C\C/C=C\C/C=C\C/C=C\CCCCCCCCC` (single isomer, unassigned) [Compound 6, (Z,Z,Z,Z,Z)-3,6,9,12,15-pentacosapentaene], for which the “EAD activity of natural constituent” value in experiment [2] is listed as “EAD-active”. For `CC/C=C\C=C/CCCCCCCCCC=O` (single isomer, unassigned) [Compound 1, (Z,Z)-11,13-hexadecadienal], the “captures of male navel orangeworm in baited traps” value with navel orangeworm is reported as “captured no moths”. Moreover, the “SSR response of olfactory receptor neurons” value in experiment [1] is given as “large spike amplitude cells (FIG. 1A) were activated”. Besides, the “male NOW response in wind tunnel” value in the experiment on NOW males (synthesized standards and crude extract) was “no test males responded”. Also, the “affinity to AtraPBP” value in experiment [4] is on record as “apparent high affinity”. Also, the entries for the “EAD activity of natural constituent” value in experiment [2] and in experiment [2] (listed as (Z,Z)-1) were “EAD-active” and “strongest EAD-active peak”, respectively.

Take `CCCCCCCCCCCCCCCC(=O)OCC` (single isomer, unassigned) [Compound 2, ethyl palmitate]: the “EAD activity of natural constituent” value in experiment [2] was “EAD-active”. For the compound `CC/C=C\C/C=C\C/C=C\C/C=C\C/C=C\CCCCCCC` (single isomer, unassigned) [Compound 5, (Z,Z,Z,Z,Z)-3,6,9,12,15-tricosapentaene], the “EAD activity of natural constituent” value in experiment [2] is recorded as “EAD-active”.

Turning to `CC/C=C\C=C/CCCCCCCCCCOC(C)=O` [(Z,Z)-11,13-hexadecadien-1-yl acetate], the “effect of removing the compound from the full mixture on meal moth captures” value in the experiment on meal moth (partial mixtures) is recorded as “increased dramatically captures of male meal moth”. In addition, the “catches of meal moth in traps baited with virgin female navel orangeworm plus added compound” value in the experiment on meal moth is “complete lack of captures”. Moreover, the “EAD activity of synthetic or authentic compound” value in experiment [2] was “same electrophysiological activity as the natural product”. Consider `CC/C=C\C=C\CCCCCCCCCC=O` [(E,Z)-1, E,Z-11,13-hexadecadienal], for which the “EAD activity of natural constituent” value in experiment [2] is “small EAD-active peaks”.
